The target in one assay is Carbonic anhydrase 7 (Homo sapiens, UniProt P43166). Nature of the assay: Inhibition of human recombinant carbonic anhydrase 7 incubated for 15 mins prior to testing by stopped-flow CO2 hydration assay.
In a further assay the target is Carbonic anhydrase 4 (Homo sapiens, UniProt P22748). The experiment in a line: Inhibition of human recombinant carbonic anhydrase 4 incubated for 15 mins prior to testing by stopped-flow CO2 hydration assay.
The next assay concerns the target Carbonic anhydrase 2 (Homo sapiens, UniProt P00918). Nature of the assay: Inhibition of human recombinant carbonic anhydrase 2 incubated for 15 mins prior to testing by stopped-flow CO2 hydration assay.
Another assay deals with Carbonic anhydrase 1 (Homo sapiens, UniProt P00915). The experiment in a line: Inhibition of human recombinant carbonic anhydrase 1 incubated for 15 mins prior to testing by stopped-flow CO2 hydration assay.

By Ki is commonly meant a dissociation constant, usually derived from enzyme kinetics or from competition with a known ligand.

Carbonic anhydrase 4, sequence (P22748 whole entry): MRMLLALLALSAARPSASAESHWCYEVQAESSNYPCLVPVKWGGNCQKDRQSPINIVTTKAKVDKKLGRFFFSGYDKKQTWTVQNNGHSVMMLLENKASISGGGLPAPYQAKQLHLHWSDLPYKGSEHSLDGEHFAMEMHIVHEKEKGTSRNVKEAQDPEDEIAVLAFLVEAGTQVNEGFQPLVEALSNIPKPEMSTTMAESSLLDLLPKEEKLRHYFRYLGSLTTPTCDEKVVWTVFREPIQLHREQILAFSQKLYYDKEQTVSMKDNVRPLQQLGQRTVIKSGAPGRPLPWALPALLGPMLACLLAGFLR
Carbonic anhydrase 7, sequence (P43166 whole entry): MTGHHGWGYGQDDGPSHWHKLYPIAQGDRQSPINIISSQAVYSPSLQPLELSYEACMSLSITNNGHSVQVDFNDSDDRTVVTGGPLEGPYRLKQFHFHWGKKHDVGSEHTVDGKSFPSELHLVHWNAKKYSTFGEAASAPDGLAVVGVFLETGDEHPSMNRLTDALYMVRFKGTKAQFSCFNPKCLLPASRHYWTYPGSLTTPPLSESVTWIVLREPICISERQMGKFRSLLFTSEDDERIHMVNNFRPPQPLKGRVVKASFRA
Carbonic anhydrase 1, sequence (P00915 whole entry): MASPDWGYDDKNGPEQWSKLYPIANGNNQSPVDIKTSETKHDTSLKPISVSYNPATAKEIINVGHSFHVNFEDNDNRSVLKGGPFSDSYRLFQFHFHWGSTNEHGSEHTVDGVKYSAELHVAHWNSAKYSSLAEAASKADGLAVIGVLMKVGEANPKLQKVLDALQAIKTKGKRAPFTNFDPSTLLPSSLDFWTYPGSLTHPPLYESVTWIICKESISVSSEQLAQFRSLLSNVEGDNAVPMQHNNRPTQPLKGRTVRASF

Take `NS(=O)(=O)c1ccc(CC/N=C2\NC(=O)/C(=C3/C(=O)Nc4ccc(Br)cc43)S2)cc1`: the Ki at Carbonic anhydrase 7 was determined as 79.3 nM; on Carbonic anhydrase 4 it was 40.7 nM; at Carbonic anhydrase 2 it was 157 nM; at Carbonic anhydrase 1, 3600 nM.
Take `NS(=O)(=O)c1ccc(CC/N=C2\C(=O)Nc3ccccc32)cc1`: the Ki at Carbonic anhydrase 1 was 92.5 nM.
Still for that read-out and setting: as for `Cc1ccc2c(c1)/C(=N/CCc1ccc(S(N)(=O)=O)cc1)C(=O)N2`, the figure is 316 nM.
As to `NS(=O)(=O)c1ccc(CC/N=C2\C(=O)N(Cc3ccccc3)c3ccccc32)cc1`, the inhibitory constant (Ki) on Carbonic anhydrase 7 is 536 nM; at Carbonic anhydrase 1, 746 nM.
On the same counts, the results for `CN1C(=O)/C(=N\CCc2ccc(S(N)(=O)=O)cc2)c2ccccc21` are 28.6 nM and 42 nM.
With `NS(=O)(=O)c1ccc(CC/N=C2\C(=O)Nc3ccc(Cl)cc32)cc1`, at Carbonic anhydrase 1, the inhibition constant Ki was 64.1 nM.
`Cc1cc(C)c2c(c1)/C(=N/CCc1ccc(S(N)(=O)=O)cc1)C(=O)N2`: the results for the inhibition constant Ki at Carbonic anhydrase 7, at Carbonic anhydrase 2 and at Carbonic anhydrase 1 were 90.9 nM, 50.5 nM and 256 nM, respectively.
Turning to `NS(=O)(=O)c1ccc(CC/N=C2\C(=O)N(Cc3ccccc3)c3ccc(Br)cc32)cc1`, the Ki on Carbonic anhydrase 1 was found to be 6150 nM.
Consider `NS(=O)(=O)c1ccc(CC/N=C2\NC(=O)/C(=C3/C(=O)Nc4ccccc43)S2)cc1`, for which the Ki is 262 nM on Carbonic anhydrase 2 and 875 nM on Carbonic anhydrase 1.
Take `Cc1ccc2c(c1)/C(=C1/S/C(=N/CCc3ccc(S(N)(=O)=O)cc3)NC1=O)C(=O)N2`: the Ki at Carbonic anhydrase 7 was 67.2 nM; at Carbonic anhydrase 2, 63.9 nM; at Carbonic anhydrase 1, 845 nM.
Turning to `NS(=O)(=O)c1ccc(CC/N=C2\NC(=O)CS2)cc1`, the inhibition constant (Ki) on Carbonic anhydrase 7 is 13.2 nM; on Carbonic anhydrase 4, 79.4 nM; at Carbonic anhydrase 2 it was 6.6 nM; at Carbonic anhydrase 1 it was 93.9 nM.
Take `NS(=O)(=O)c1ccc(CC/N=C2\C(=O)Nc3ccc(Br)cc32)cc1`: on Carbonic anhydrase 1, the Ki came to 81.5 nM.
On to `NS(=O)(=O)c1ccc(CC/N=C2\NC(=O)/C(=C3/C(=O)Nc4ccc(Cl)cc43)S2)cc1`, for which the Ki stood at 302 nM on Carbonic anhydrase 2 and 4450 nM on Carbonic anhydrase 1.
`CN1C(=O)/C(=N\CCc2ccc(S(N)(=O)=O)cc2)c2cc(Cl)ccc21`: the inhibition constant Ki at Carbonic anhydrase 7 worked out at 91 nM; at Carbonic anhydrase 4 it was 31.2 nM; on Carbonic anhydrase 2 it was 7.7 nM; at Carbonic anhydrase 1, 668 nM.
As to `COc1ccc2c(c1)/C(=N/CCc1ccc(S(N)(=O)=O)cc1)C(=O)N2`, the inhibition constant Ki on Carbonic anhydrase 1 came to 206 nM.
In the case of `CN1C(=O)/C(=N\CCc2ccc(S(N)(=O)=O)cc2)c2cc(Br)ccc21`, the inhibition constant (Ki) at Carbonic anhydrase 2 stood at 5.9 nM; on Carbonic anhydrase 1, 64.9 nM.
For `NS(=O)(=O)c1ccc(CC/N=C2\NC(=O)/C(=C3/C(=O)Nc4ccc([N+](=O)[O-])cc43)S2)cc1`, in that order: 28.6 nM and 265 nM.
As to `NS(=O)(=O)c1ccc(CC/N=C2\C(=O)N(Cc3ccccc3)c3ccc(Cl)cc32)cc1`, the results for the inhibition constant Ki on Carbonic anhydrase 7 and at Carbonic anhydrase 1 were more than 10000 nM and 8550 nM, respectively.

The record behind these values is ChEMBL document CHEMBL3992540, “Novel indolin-2-one-based sulfonamides as carbonic anhydrase inhibitors: Synthesis, in vitro biological evaluation against carbonic anhydrases isoforms I, II, IV and VII and molecular docking studies” (Eur J Med Chem, 2017).
